Assays:
[1] = biological target: T1, Native M. tb PGDH (Mycobacterium tuberculosis, UniProt P9WNX3); assay type: biochemical; settings: high HPAP level where substrate inhibition is significant, pH 7.5
[2] = biological target: Human PGDH (Homo sapiens, UniProt O43175); assay: Inhibition of human PGDH; assay type: biochemical; settings: unpublished observation
[3] = tested on: M. tb PGDH; settings: cited from earlier work
[4] = biological target: T1, Native M. tb PGDH; assay type: biochemical; settings: HPAP 400 μM, NADH varied, 200 mM potassium phosphate, pH 7.5
[5] = biological target: T1, Native M. tb PGDH; assay type: binding; settings: no substrate, excitation 295 nm, fluorescence 420 nm, pH 7.5
[6] = biological target: T1, Native M. tb PGDH; assay: Stopped-flow time course of NADH turnover with kinetic simulation to Scheme 2; assay type: biochemical; settings: for k+i / k-i: from simulation
[7] = biological target: M. tb PGDH; assay: Transient binding of NADH to the enzyme in the absence of substrate; design: species or system Mycobacterium tuberculosis; settings: read-out: Kd of NADH at the second (anion-binding) site; calculated from the rates of NADH binding determined in the absence of substrate
[8] = tested on: M. tb PGDH; settings: cited from earlier work; remark: listed apart in the source
[9] = biological target: T1, Native M. tb PGDH; settings: read-out: Ki, HPAP (substrate inhibition); cited from earlier work
[10] = step ES + N = ESN (NADH to active site)
[11] = step ES + N = NES (NADH to second site)
[12] = step ESN + N = NESN (NADH to second site)
[13] = step SES + N = SESN (NADH to active site)

T1 sequence (P9WNX3 whole entry): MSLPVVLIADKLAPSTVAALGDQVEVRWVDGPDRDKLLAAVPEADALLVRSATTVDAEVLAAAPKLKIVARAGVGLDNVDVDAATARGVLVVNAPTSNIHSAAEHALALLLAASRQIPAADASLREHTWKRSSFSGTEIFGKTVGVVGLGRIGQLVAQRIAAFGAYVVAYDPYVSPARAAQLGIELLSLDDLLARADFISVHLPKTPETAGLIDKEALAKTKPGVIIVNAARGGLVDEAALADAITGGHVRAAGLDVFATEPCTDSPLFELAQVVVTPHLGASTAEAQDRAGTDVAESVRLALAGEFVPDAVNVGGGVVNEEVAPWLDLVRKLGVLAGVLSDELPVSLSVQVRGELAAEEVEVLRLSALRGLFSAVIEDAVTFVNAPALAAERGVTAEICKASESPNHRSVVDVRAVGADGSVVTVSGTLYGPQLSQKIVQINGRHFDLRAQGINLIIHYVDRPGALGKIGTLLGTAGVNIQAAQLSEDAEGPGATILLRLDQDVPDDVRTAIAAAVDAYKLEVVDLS
Chain of Human PGDH (O43175 whole entry): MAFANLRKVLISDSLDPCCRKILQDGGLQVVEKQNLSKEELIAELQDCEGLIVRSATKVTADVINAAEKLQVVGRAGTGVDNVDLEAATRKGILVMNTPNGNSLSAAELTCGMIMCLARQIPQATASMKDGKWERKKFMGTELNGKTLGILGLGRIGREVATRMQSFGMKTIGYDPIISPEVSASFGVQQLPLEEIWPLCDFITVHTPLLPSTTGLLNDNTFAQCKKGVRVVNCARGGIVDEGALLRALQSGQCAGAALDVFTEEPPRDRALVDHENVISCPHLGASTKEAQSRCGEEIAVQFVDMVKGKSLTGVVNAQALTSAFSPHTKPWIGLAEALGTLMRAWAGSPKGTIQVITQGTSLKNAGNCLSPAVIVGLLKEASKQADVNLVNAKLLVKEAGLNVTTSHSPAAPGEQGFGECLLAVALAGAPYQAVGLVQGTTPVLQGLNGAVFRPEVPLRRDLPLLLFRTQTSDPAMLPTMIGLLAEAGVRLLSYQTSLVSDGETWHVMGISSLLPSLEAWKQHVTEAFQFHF

Compound: N[C@@H](CO)C(=O)O [L-serine]
- n (Hill coefficient), serine inhibition, High Substrate [1]: 1.5 ± 0.1
- Inhibition by L-serine [2]: not inhibited

Compound: O=C(O)C(O)C(O)C(=O)O (stereo not shown) [tartrate]
- Effect of tartrate binding to the anion-binding site on rate of catalysis [3]: does not effect the rate of catalysis

Compound: NADH
- K0.5, Activity vs NADH [4]: 106 ± 5 µM
- n (Hill coefficient), Activity vs NADH [4]: 2.5 ± 0.2
- K0.5, FRET vs NADH [5]: 3.2 ± 0.1 µM
- n (Hill coefficient), FRET vs NADH [5]: 1.6 ± 0.1
- k+i [6, 10]: 4.09e+08 M⁻¹ s⁻¹
- k-i [6, 10]: 70 s⁻¹
- k+i [6, 11]: 0 M⁻¹ s⁻¹
- k-i [6, 11]: 0 s⁻¹
- k+i [6, 12]: 0 M⁻¹ s⁻¹
- k-i [6, 12]: 0 s⁻¹
- k+i ([6]; step NES + N = NESN (NADH to active site)): 7.59e+08 M⁻¹ s⁻¹
- k+i [6, 13]: 190000 M⁻¹ s⁻¹
- k-i [6, 13]: 3 s⁻¹
- Kd [7]: ~0.6 µM
- k+i [8]: 0.37 ^c μM^-1s^-1
- k-i [8]: 0.22 ^c s^-1

Compound: hydroxypyruvic acid phosphate [HPAP]
- Kd ([6]; read-out: Kd for HPAP at the second (anion-binding) site): ~8 µM
- Substrate inhibition by HPAP [2]: displays substrate inhibition
- Ki [9]: 950 ± 120 µM

From paper PMC2692652 (Biochemistry, 2009)
